Results reported in patent US8053473B2, “Antibacterial agent comprising 7, 10-dihydroxy-8(E)-octadecenoic acid” (Kyung Pook National University Industry-Academic …, priority 2007, dated 2011).

Columns and labels:
[1] = tested on: Xanthomonas campestris KACC 10490; format: cell-based; conditions: liquid medium; Gram negative; FIG. 8
[2] = tested on: Staphylococcus epidermidis KCTC 1917; experiment: Antibacterial activity on solid agar medium 2; conditions: Gram positive, FIG. 7
[3] = tested on: Ralstonia solanacearum KACC 10475; experiment: microbe, parasite or virus in culture; format: cell-based
[4] = tested on: Bacillus subtilis ATCC 6501; experiment: Antibacterial activity on solid agar medium 2; conditions: Gram positive, FIG. 7
[5] = tested on: Salmonella typhimurium KCTC 2515; experiment: Antibacterial activity on solid agar medium (clear zone around filter paper)
[6] = tested on: Pseudomonas syringae pv. actinidae KACC 10659; format: cell-based; conditions: liquid medium; Gram negative; FIG. 8
[7] = tested on: Escherichia coli ATCC 8739; experiment: Antibacterial activity on solid agar medium 2; conditions: Gram negative, FIG. 7
[8] = tested on: Staphylococcus aureus KCTC 1621; experiment: Antibacterial activity on solid agar medium (clear zone around filter paper); conditions: 5 mg/spot, similar level with Bactroban (3 mg Mupirocin), FIG. 5
[9] = tested on: Staphylococcus aureus ATCC 6538; experiment: Antibacterial activity on solid agar medium 2; conditions: Gram positive, FIG. 7
[10] = tested on: Pseudomonas syringae pv. sesami KACC 10649; format: cell-based; conditions: liquid medium; Gram negative; FIG. 8
[11] = tested on: Corynebacterium glutamicum KACC 10784; format: cell-based; conditions: liquid medium; Gram positive; FIG. 8
[12] = tested on: Xanthomonas axonopodis pv. citri KACC 10443; experiment: Growth inhibition in liquid medium 2; format: cell-based; conditions: Gram negative, FIG. 8
[13] = tested on: Listeria monocytogenes ATCC 19111; experiment: Antibacterial activity on solid agar medium 2; conditions: Gram positive, FIG. 7
[14] = tested on: Erwinia sp. KACC 10207; format: cell-based; conditions: liquid medium; Gram negative; FIG. 8
[15] = tested on: Pseudomonas syringae pv. syringae KACC 10361; format: cell-based; conditions: liquid medium; Gram negative; FIG. 8
[16] = tested on: Bacillus subtillis ATCC 6501; experiment: microbe, parasite or virus in culture; format: cell-based; conditions: ATCC6501, liquid YPD medium, OD540 up to 24 hours, read-out: minimal inhibitory concentration

CCCCCCCC[C@H](O)/C=C/[C@@H](O)CCCCCC(=O)O [DOD, 7,10-dihydroxy-8(E)-octadecenoic acid]
growth inhibitory effect [1]: had growth inhibitory effect
antibacterial activity [2]: exhibited antibacterial activity
MIC ([3]; Ralstonia solanacearum, KACC10475, 24 h, read-out: minimal inhibitory concentration): < 125 µg/mL
growth inhibitory effect ([3]; liquid medium, Gram negative, FIG. 8): had growth inhibitory effect
antibacterial activity [4]: exhibited antibacterial activity
antibacterial activity (clear zone) ([5]; 5 mg/spot, similar level with Bactroban (3 mg Mupirocin), FIG. 5): high antibacterial activity
antibacterial activity ([5]; Gram negative, FIG. 7): exhibited antibacterial activity
growth inhibitory effect [6]: had growth inhibitory effect
antibacterial activity [7]: exhibited antibacterial activity
antibacterial activity (clear zone) [8]: high antibacterial activity
antibacterial activity [9]: exhibited antibacterial activity
growth inhibitory effect [10]: had growth inhibitory effect
growth inhibitory effect [11]: had growth inhibitory effect
growth inhibitory effect [12]: had growth inhibitory effect
antibacterial activity [13]: exhibited antibacterial activity
growth inhibitory effect [14]: had growth inhibitory effect
growth inhibitory effect [15]: had growth inhibitory effect
MIC [16]: < 125 µg/mL
